Data as given in ChEMBL document CHEMBL1201862, “PubChem BioAssay data set” (2004).
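96-well plates; 48 h exposure; 5 concentrations. Endpoints by linear interpolation between flanking doses. Not reached: highest tested concentration assigned. Here, GI50 denotes the concentration required for 50% inhibition of growth.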 Calls of active or inactive are those of the source. Rule as the data show it: active = GI50 up to about 1.1 µM and inactive = higher.

Columns and labels:
Assay in all cases: inhibition of tumour cell growth, NCI panel, 48 h
A549 = tested on: A549
EKVX = tested on: EKVX
HCC 2998 = tested on: HCC 2998
HOP-62 = tested on: HOP-62
HT-29 = tested on: HT-29
IGROV-1 = tested on: IGROV-1
M14 = tested on: M14
Malme-3M = tested on: Malme-3M
OVCAR-5 = tested on: OVCAR-5
RXF 393 = tested on: RXF 393
SF-268 = tested on: SF-268
SK-MEL-28 = tested on: SK-MEL-28
SK-MEL-5 = tested on: SK-MEL-5
SNB-75 = tested on: SNB-75
SW-620 = tested on: SW-620
SNB-19 = tested on: SNB-19
CAKI-1 = tested on: CAKI-1
SR = tested on: SR

Measured: GI50

C/C(CC(=O)Nc1ccc(C)cc1)=N\NC(N)=S
inactive: A549 > 100 µM | EKVX > 100 µM | HCC 2998 > 100 µM | HOP-62 > 100 µM | HT-29 > 100 µM | IGROV-1 > 100 µM | M14 66.7 µM | Malme-3M > 100 µM | OVCAR-5 > 100 µM | RXF 393 > 100 µM | SF-268 > 100 µM | SK-MEL-28 > 100 µM | SK-MEL-5 > 100 µM | SNB-75 > 100 µM | SW-620 > 100 µM

CC(=O)OCCOCn1c2ccccc2c2c3c(c4c5ccccc5n(COCCOC(C)=O)c4c21)C(=O)N(Cc1ccccc1)C3=O
inactive: A549 > 100 µM | EKVX > 100 µM | HCC 2998 > 100 µM | HOP-62 > 100 µM | HT-29 > 100 µM | IGROV-1 > 100 µM | M14 > 100 µM | Malme-3M > 100 µM | OVCAR-5 > 100 µM | RXF 393 > 100 µM | SF-268 > 100 µM | SK-MEL-28 > 100 µM | SK-MEL-5 > 100 µM | SNB-19 > 100 µM | SNB-75 76.7 µM | SW-620 > 100 µM

Cn1cccc1/C=C/c1cc(Br)c(/C=C/c2cccn2C)cc1Br
inactive: A549 11.9 µM | CAKI-1 15.3 µM | EKVX 11.1 µM | HCC 2998 2.62 µM | HT-29 18.6 µM | IGROV-1 15.8 µM | M14 19 µM | Malme-3M 10.4 µM | OVCAR-5 16.8 µM | RXF 393 12.6 µM | SF-268 20.5 µM | SK-MEL-28 15.5 µM | SK-MEL-5 15.2 µM | SNB-19 24.2 µM | SNB-75 3.13 µM | SW-620 20.9 µM

Cc1cn(C2C=CC(=O)C(C)O2)c(=O)[nH]c1=O (stereo not given)
inactive: A549 39 µM | CAKI-1 16.7 µM | HOP-62 20.6 µM | HT-29 17.1 µM | IGROV-1 18 µM | M14 15.3 µM | Malme-3M 13.2 µM | SF-268 18.2 µM | SK-MEL-28 14.9 µM | SK-MEL-5 14.7 µM | SNB-19 21 µM | SNB-75 15.5 µM | SR 18.3 µM | SW-620 15.1 µM

O=C1CC(c2c(-c3ccccc3)[nH]c3ccccc23)C(=O)N1c1ccccc1 (stereo not given)
inactive: A549 41.8 µM | CAKI-1 59.4 µM | EKVX > 100 µM | HCC 2998 > 100 µM | HOP-62 25.6 µM | HT-29 > 100 µM | IGROV-1 > 100 µM | M14 > 100 µM | Malme-3M > 100 µM | OVCAR-5 > 100 µM | RXF 393 27.4 µM | SK-MEL-28 > 100 µM | SK-MEL-5 56.8 µM | SNB-75 > 100 µM | SW-620 > 100 µM

COc1ccc(S(=O)(=O)Nc2ccccc2C(=O)O)cc1
inactive: A549 > 100 µM | CAKI-1 > 100 µM | EKVX > 100 µM | HCC 2998 > 100 µM | HT-29 > 100 µM | IGROV-1 > 100 µM | M14 > 100 µM | Malme-3M > 100 µM | OVCAR-5 > 100 µM | RXF 393 > 100 µM | SF-268 > 100 µM | SK-MEL-28 > 100 µM | SK-MEL-5 > 100 µM | SNB-19 > 100 µM | SNB-75 68.1 µM | SW-620 > 100 µM

CCCCCCCCCCCCCCCCc1c(O)nc(NN)nc1C(=O)OC
inactive: A549 > 50 µM | CAKI-1 > 50 µM | EKVX > 50 µM | HCC 2998 > 50 µM | HOP-62 > 50 µM | HT-29 > 50 µM | IGROV-1 > 50 µM | M14 > 50 µM | Malme-3M > 50 µM | OVCAR-5 > 50 µM | RXF 393 > 50 µM | SF-268 > 50 µM | SK-MEL-28 > 50 µM | SK-MEL-5 > 50 µM | SNB-19 > 50 µM | SNB-75 > 50 µM | SW-620 > 50 µM

Cc1cc2c(cc1C)[n+]([O-])c(C(=O)C/C(=N/OCCCc1ccccc1)C(=O)Nc1cc(Cl)ccc1Cl)c(C)[n+]2[O-]
inactive: A549 > 100 µM | CAKI-1 > 100 µM | EKVX > 100 µM | HCC 2998 > 100 µM | HOP-62 > 100 µM | HT-29 > 100 µM | IGROV-1 > 100 µM | M14 > 100 µM | Malme-3M > 100 µM | OVCAR-5 > 100 µM | RXF 393 > 100 µM | SF-268 > 100 µM | SK-MEL-28 > 100 µM | SK-MEL-5 > 100 µM | SNB-19 > 100 µM | SNB-75 > 100 µM | SW-620 > 100 µM

Cc1ccc(SSCCCCS(=O)O)cc1
inactive: A549 18.5 µM | CAKI-1 18.9 µM | EKVX 18.5 µM | HCC 2998 25.1 µM | HOP-62 28.7 µM | HT-29 21.7 µM | IGROV-1 2.91 µM | M14 16.4 µM | Malme-3M 19.2 µM | OVCAR-5 45.4 µM | RXF 393 12.7 µM | SF-268 10 µM | SK-MEL-28 17.1 µM | SK-MEL-5 11.5 µM | SNB-19 34.7 µM | SNB-75 14.1 µM | SW-620 17.5 µM

COC1(OC)CC2OC1C1N=NN(C(=O)OC(C)(C)C)C21 (stereo not given)
inactive: A549 > 100 µM | CAKI-1 > 100 µM | HCC 2998 > 100 µM | HOP-62 > 100 µM | HT-29 > 100 µM | IGROV-1 > 100 µM | M14 > 100 µM | Malme-3M > 100 µM | OVCAR-5 > 100 µM | RXF 393 > 100 µM | SF-268 > 100 µM | SK-MEL-28 > 100 µM | SK-MEL-5 > 100 µM | SNB-75 > 100 µM | SW-620 57.5 µM

COc1ccc2c(c1OC)C(C=C(c1ccccc1)c1ccccc1)CN(C)C2 (stereo not given)
inactive: A549 30 µM | CAKI-1 14.2 µM | EKVX 35.3 µM | HCC 2998 24.9 µM | HOP-62 20.6 µM | HT-29 6.82 µM | IGROV-1 14.8 µM | M14 14.5 µM | Malme-3M 20.2 µM | OVCAR-5 6.79 µM | SF-268 27.1 µM | SK-MEL-28 22.4 µM | SK-MEL-5 15.8 µM | SNB-19 29.9 µM | SNB-75 34.3 µM | SW-620 13.4 µM

CCOC(=O)/C(C#N)=C(O)/C(=C/c1ccccc1Cl)NC(=O)c1ccccc1
inactive: A549 > 100 µM | CAKI-1 > 100 µM | EKVX > 100 µM | HCC 2998 > 100 µM | HOP-62 > 100 µM | HT-29 > 100 µM | IGROV-1 > 100 µM | M14 > 100 µM | Malme-3M > 100 µM | OVCAR-5 > 100 µM | SF-268 > 100 µM | SK-MEL-28 > 100 µM | SK-MEL-5 > 100 µM | SNB-19 > 100 µM | SNB-75 > 100 µM | SW-620 18.8 µM
